From the NIST ThermoML archive (doi:10.1016/j.fluid.2015.04.017)

Assay: xn = mol fraction of the nth substance listed
Settings: 101 kPa, Liquid; for viscosity: Concentric cylinders viscometry; for mass density: Vibrating tube method

CCOC(=O)C(C)O (stereo not drawn) [DL-ethyl lactate] + CN1CCCC1=O
Settings | mass density [kg/m3] | viscosity [mPa·s]
288.15 K, x1 = 0.0999 | 1040.68 | 2.34
288.15 K, x1 = 0.2 | 1041.7 | 2.601
288.15 K, x1 = 0.3001 | 1042.78 | 2.89
288.15 K, x1 = 0.4 | 1043.43 | 3.122
288.15 K, x1 = 0.4997 | 1043.89 | 3.352
288.15 K, x1 = 0.6 | 1043.93 | 3.508
288.15 K, x1 = 0.7002 | 1043.56 | 3.581
288.15 K, x1 = 0.7999 | 1042.82 | 3.567
288.15 K, x1 = 0.8997 | 1041.57 | 3.456
288.15 K, x1 = 1 | 1039.28 | 3.207
293.15 K, x1 = 0.0999 | 1036.17 | 2.125
293.15 K, x1 = 0.2 | 1037.14 | 2.347
293.15 K, x1 = 0.3001 | 1038.17 | 2.585
293.15 K, x1 = 0.4 | 1038.75 | 2.772
293.15 K, x1 = 0.4997 | 1039.12 | 2.952
293.15 K, x1 = 0.6 | 1039.06 | 3.066
293.15 K, x1 = 0.7002 | 1038.56 | 3.11
293.15 K, x1 = 0.7999 | 1037.68 | 3.08
293.15 K, x1 = 0.8997 | 1036.28 | 2.975
293.15 K, x1 = 1 | 1033.84 | 2.75
298.15 K, x1 = 0.0999 | 1031.66 | 1.941
298.15 K, x1 = 0.2 | 1032.59 | 2.132
298.15 K, x1 = 0.3001 | 1033.56 | 2.331
298.15 K, x1 = 0.4 | 1034.06 | 2.482
298.15 K, x1 = 0.4997 | 1034.35 | 2.624
298.15 K, x1 = 0.6 | 1034.17 | 2.706
298.15 K, x1 = 0.7002 | 1033.55 | 2.726
298.15 K, x1 = 0.7999 | 1032.53 | 2.692
298.15 K, x1 = 0.8997 | 1030.98 | 2.591
298.15 K, x1 = 1 | 1028.39 | 2.39
303.15 K, x1 = 0.0999 | 1027.16 | 1.785
303.15 K, x1 = 0.2 | 1028.05 | 1.947
303.15 K, x1 = 0.3001 | 1028.95 | 2.113
303.15 K, x1 = 0.4 | 1029.38 | 2.235
303.15 K, x1 = 0.4997 | 1029.57 | 2.349
303.15 K, x1 = 0.6 | 1029.29 | 2.41
303.15 K, x1 = 0.7002 | 1028.53 | 2.416
303.15 K, x1 = 0.7999 | 1027.37 | 2.378
303.15 K, x1 = 0.8997 | 1025.67 | 2.284
303.15 K, x1 = 1 | 1022.92 | 2.097
308.15 K, x1 = 0.0999 | 1022.66 | 1.646
308.15 K, x1 = 0.2 | 1023.5 | 1.786
308.15 K, x1 = 0.3001 | 1024.34 | 1.927
308.15 K, x1 = 0.4 | 1024.69 | 2.026
308.15 K, x1 = 0.4997 | 1024.79 | 2.116
308.15 K, x1 = 0.6 | 1024.38 | 2.16
308.15 K, x1 = 0.7002 | 1023.5 | 2.156
308.15 K, x1 = 0.7999 | 1022.2 | 2.115
308.15 K, x1 = 0.8997 | 1020.34 | 2.026
308.15 K, x1 = 1 | 1017.42 | 1.858
313.15 K, x1 = 0.0999 | 1018.16 | 1.525
313.15 K, x1 = 0.2 | 1018.95 | 1.646
313.15 K, x1 = 0.3001 | 1019.72 | 1.765
313.15 K, x1 = 0.4 | 1019.99 | 1.845
313.15 K, x1 = 0.4997 | 1020 | 1.918
313.15 K, x1 = 0.6 | 1019.48 | 1.948
313.15 K, x1 = 0.7002 | 1018.46 | 1.937
313.15 K, x1 = 0.7999 | 1017.01 | 1.896
313.15 K, x1 = 0.8997 | 1015 | 1.816
313.15 K, x1 = 1 | 1011.9 | 1.658
318.15 K, x1 = 0.0999 | 1013.66 | 1.417
318.15 K, x1 = 0.2 | 1014.4 | 1.523
318.15 K, x1 = 0.3001 | 1015.1 | 1.625
318.15 K, x1 = 0.4 | 1015.29 | 1.689
318.15 K, x1 = 0.4997 | 1015.19 | 1.748
318.15 K, x1 = 0.6 | 1014.55 | 1.768
318.15 K, x1 = 0.7002 | 1013.4 | 1.751
318.15 K, x1 = 0.7999 | 1011.81 | 1.712
318.15 K, x1 = 0.8997 | 1009.64 | 1.636
318.15 K, x1 = 1 | 1006.36 | 1.491
323.15 K, x1 = 0.0999 | 1009.17 | 1.329
323.15 K, x1 = 0.2 | 1009.85 | 1.422
323.15 K, x1 = 0.3001 | 1010.48 | 1.512
323.15 K, x1 = 0.4 | 1010.58 | 1.563
323.15 K, x1 = 0.4997 | 1010.38 | 1.615
323.15 K, x1 = 0.6 | 1009.62 | 1.62
323.15 K, x1 = 0.7002 | 1008.34 | 1.602
323.15 K, x1 = 0.7999 | 1006.6 | 1.568
323.15 K, x1 = 0.8997 | 1004.28 | 1.492
323.15 K, x1 = 1 | 1000.79 | 1.349

CCOC(=O)C(C)O (stereo not drawn) [DL-ethyl lactate] + CCC(C)=O
Settings | mass density [kg/m3] | viscosity [mPa·s]
288.15 K, x1 = 0.0999 | 840.096 | 0.5127
288.15 K, x1 = 0.1999 | 868.347 | 0.6157
288.15 K, x1 = 0.3001 | 894.852 | 0.7578
288.15 K, x1 = 0.4001 | 919.605 | 0.9204
288.15 K, x1 = 0.5 | 942.723 | 1.128
288.15 K, x1 = 0.5998 | 964.577 | 1.384
288.15 K, x1 = 0.6999 | 985.434 | 1.707
288.15 K, x1 = 0.8 | 1005.13 | 2.113
288.15 K, x1 = 0.9001 | 1023.3 | 2.63
288.15 K, x1 = 1 | 1039.28 | 3.207
293.15 K, x1 = 0.0999 | 834.849 | 0.4886
293.15 K, x1 = 0.1999 | 863.068 | 0.5824
293.15 K, x1 = 0.3001 | 889.537 | 0.7086
293.15 K, x1 = 0.4001 | 914.27 | 0.8532
293.15 K, x1 = 0.5 | 937.369 | 1.035
293.15 K, x1 = 0.5998 | 959.204 | 1.254
293.15 K, x1 = 0.6999 | 980.043 | 1.527
293.15 K, x1 = 0.8 | 999.721 | 1.862
293.15 K, x1 = 0.9001 | 1017.88 | 2.287
293.15 K, x1 = 1 | 1033.84 | 2.752
298.15 K, x1 = 0.0999 | 829.575 | 0.4651
298.15 K, x1 = 0.1999 | 857.764 | 0.5514
298.15 K, x1 = 0.3001 | 884.198 | 0.6643
298.15 K, x1 = 0.4001 | 908.905 | 0.7937
298.15 K, x1 = 0.5 | 931.98 | 0.9526
298.15 K, x1 = 0.5998 | 953.795 | 1.141
298.15 K, x1 = 0.6999 | 974.621 | 1.375
298.15 K, x1 = 0.8 | 994.289 | 1.658
298.15 K, x1 = 0.9001 | 1012.45 | 2.007
298.15 K, x1 = 1 | 1028.39 | 2.39
303.15 K, x1 = 0.0999 | 824.277 | 0.4429
303.15 K, x1 = 0.1999 | 852.434 | 0.5214
303.15 K, x1 = 0.3001 | 878.836 | 0.6229
303.15 K, x1 = 0.4001 | 903.522 | 0.7397
303.15 K, x1 = 0.5 | 926.577 | 0.8816
303.15 K, x1 = 0.5998 | 948.373 | 1.046
303.15 K, x1 = 0.6999 | 969.181 | 1.248
303.15 K, x1 = 0.8 | 988.835 | 1.489
303.15 K, x1 = 0.9001 | 1006.99 | 1.783
303.15 K, x1 = 1 | 1022.92 | 2.097
308.15 K, x1 = 0.0999 | 818.947 | 0.4211
308.15 K, x1 = 0.1999 | 847.072 | 0.4939
308.15 K, x1 = 0.3001 | 873.449 | 0.5848
308.15 K, x1 = 0.4001 | 898.112 | 0.6909
308.15 K, x1 = 0.5 | 921.146 | 0.8175
308.15 K, x1 = 0.5998 | 942.923 | 0.9624
308.15 K, x1 = 0.6999 | 963.714 | 1.138
308.15 K, x1 = 0.8 | 983.356 | 1.345
308.15 K, x1 = 0.9001 | 1001.5 | 1.595
308.15 K, x1 = 1 | 1017.42 | 1.858
313.15 K, x1 = 0.0999 | 813.582 | 0.4001
313.15 K, x1 = 0.1999 | 841.677 | 0.4671
313.15 K, x1 = 0.3001 | 868.027 | 0.5492
313.15 K, x1 = 0.4001 | 892.67 | 0.6463
313.15 K, x1 = 0.5 | 915.688 | 0.7602
313.15 K, x1 = 0.5998 | 937.45 | 0.8883
313.15 K, x1 = 0.6999 | 958.226 | 1.042
313.15 K, x1 = 0.8 | 977.854 | 1.222
313.15 K, x1 = 0.9001 | 995.984 | 1.436
313.15 K, x1 = 1 | 1011.9 | 1.658
318.15 K, x1 = 0.0999 | 808.184 | 0.3798
318.15 K, x1 = 0.1999 | 836.25 | 0.4415
318.15 K, x1 = 0.3001 | 862.576 | 0.5165
318.15 K, x1 = 0.4001 | 887.197 | 0.6052
318.15 K, x1 = 0.5 | 910.198 | 0.709
318.15 K, x1 = 0.5998 | 931.944 | 0.8229
318.15 K, x1 = 0.6999 | 952.707 | 0.9589
318.15 K, x1 = 0.8 | 972.323 | 1.116
318.15 K, x1 = 0.9001 | 990.445 | 1.3
318.15 K, x1 = 1 | 1006.36 | 1.491
323.15 K, x1 = 0.0999 | 802.753 | 0.3598
323.15 K, x1 = 0.1999 | 830.788 | 0.4212
323.15 K, x1 = 0.3001 | 857.09 | 0.4897
323.15 K, x1 = 0.4001 | 881.694 | 0.5699
323.15 K, x1 = 0.5 | 904.683 | 0.6649
323.15 K, x1 = 0.5998 | 926.419 | 0.7673
323.15 K, x1 = 0.6999 | 947.168 | 0.8872
323.15 K, x1 = 0.8 | 966.77 | 1.028
323.15 K, x1 = 0.9001 | 984.879 | 1.193
323.15 K, x1 = 1 | 1000.79 | 1.349
